A short description of this series: apparent surfactant dissolution (solubility) in propellant, viewed with the naked eye. The class given is physicochemical. The note with it: for Solubility of oleic acid in the propellant / Solubility of sorbitan trioleate in the propellant / Solubility of sorbitan monooleate in the propellant: ambient temperature (19.5-25.0° C.). The protocol:
A number of experiments were conducted to investigate the solubility of various surfactants in R-134a and R-152a. The apparent surfactant dissolution in each propellant was studied at ambient temperature (19.5-25.0° C.) by adding a known quantity of surfactant to a plastic-coated, pressure-resistant, clear glass aerosol bottle. A continuous flow valve was then crimped onto the bottle. A total of 10 grams of each propellant was filled into each aerosol bottle such that the surfactant concentration ranged from 0 to 5% w/w. After addition of propellant, the contents were sonicated for 10 mins and viewed with the naked eye for dissolution.

For the compound `CCCCCCCC/C=C\CCCCCCCC(=O)O` [oleic acid], the “solubility in R-152a compared with R-134a” value (R-152a versus R-134a) is reported as “much higher”. The “solubility in R-152a compared with any other surfactant” value (R-152a, versus the other surfactants tested) is “much higher”. In addition, the “Solubility of oleic acid in the propellant” value by setting is: (propellant R-134a) “Up to 0.05 % w/w”; (propellant R-152a) “Up to 2.5 % w/w”.

Regarding sorbitan trioleate, the “Solubility of sorbitan trioleate in the propellant” value is, setting by setting: (propellant R-134a) “Up to 0.05 % w/w”; (propellant R-152a) “Up to 0.05 % w/w”.

Regarding sorbitan monooleate, the “Solubility of sorbitan monooleate in the propellant” value is “Up to 0.03 % w/w” (propellant R-134a) and “Up to 0.05 % w/w” (propellant R-152a).
